Test results as given in BindingDB's records for doi:10.1021/jm960395q (Shionogi, 1996).

How the values were obtained:
Phospholipase A2 = Phospholipase A2 (Homo sapiens, UniProt P04054); assay: Inhibition of recombinant human secretory phospholipase A2 (sPLA2), chromogenic screening assay.
[1] = Inhibitory activity against recombinant human secretory phospholipase A2 (s-PLA2) by phosphatidylcholine/deoxycholate assay (PC/DOC).

Sequence of Phospholipase A2 (P04054 whole entry): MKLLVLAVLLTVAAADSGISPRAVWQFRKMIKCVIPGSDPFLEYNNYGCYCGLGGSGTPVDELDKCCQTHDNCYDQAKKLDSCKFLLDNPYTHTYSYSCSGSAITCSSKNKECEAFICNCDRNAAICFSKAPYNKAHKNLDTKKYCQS

SMILES	IC50 (Phospholipase A2) [nM]	IC50 [1] [nM]
COC(=O)COc1cccn2c(CC3CCCCC3)c(C3CC3)c(C(=O)C(N)=O)c12 [(1-Aminooxalyl-3-cyclohexylmethyl-2-cyclopropyl-indolizin-8-yloxy)-acetic acid methyl ester]	43	160
COC(=O)COc1cccn2c(Cc3ccccc3-c3ccccc3)c(C3CCCC3)c(C(=O)C(N)=O)c12 [(1-Aminooxalyl-3-biphenyl-2-ylmethyl-2-cyclopentyl-indolizin-8-yloxy)-acetic acid methyl ester]	280	–
CCc1c(Cc2ccccc2)c2ccc(OCCCC(=O)O)cn2c1C(=O)C(N)=O [4-(3-Aminooxalyl-1-benzyl-2-ethyl-indolizin-6-yloxy)-butyric acid]	1100	–
Cc1c(C(=O)C(N)=O)c2c(OCC(=O)O)cccn2c1CC12C[C@H]3C[C@@H](C1)C[C@@H](C2)C3 [(3-Adamantan-1-ylmethyl-1-aminooxalyl-2-methyl-indolizin-8-yloxy)-acetic acid]	120	–
CCc1c(CC(N)=O)c2c(OCC(=O)O)cccn2c1Cc1ccccc1-c1ccccc1 [(3-Biphenyl-2-ylmethyl-1-carbamoylmethyl-2-ethyl-indolizin-8-yloxy)-acetic acid]	14	14
CCc1c(C(=O)C(N)=O)c2c(OCC(=O)O)cccn2c1Cc1cccc(C(F)(F)F)c1 [[1-Aminooxalyl-2-ethyl-3-(3-trifluoromethyl-benzyl)-indolizin-8-yloxy]-acetic acid]	9	3
CCc1c(C(=O)C(N)=O)c2c(OCC(=O)OC)cccn2c1Cc1cccc(-c2ccccc2)c1 [(1-Aminooxalyl-3-biphenyl-3-ylmethyl-2-ethyl-indolizin-8-yloxy)-acetic acid methyl ester]	9	4.2
CCc1c(C(=O)C(N)=O)c2c(OCCCC(=O)O)cccn2c1CC1CCCCC1 [4-(1-Aminooxalyl-3-cyclohexylmethyl-2-ethyl-indolizin-8-yloxy)-butyric acid]	3400	–
NC(=O)C(=O)c1c(C2CC2)c(CC2CCCC2)n2cccc(OCC(=O)O)c12 [(1-Aminooxalyl-3-cyclopentylmethyl-2-cyclopropyl-indolizin-8-yloxy)-acetic acid]	29	88
COC(=O)COc1cccn2c(Cc3ccccc3-c3ccccc3)c(C(C)C)c(C(=O)C(N)=O)c12 [(1-Aminooxalyl-3-biphenyl-2-ylmethyl-2-isopropyl-indolizin-8-yloxy)-acetic acid methyl ester]	35	–
CCc1c(C(=O)C(N)=O)c2c(OCC(=O)O)cccn2c1Cc1cccc2ccccc12 [(1-Aminooxalyl-2-ethyl-3-naphthalen-1-ylmethyl-indolizin-8-yloxy)-acetic acid]	5	24
CCCC(C)Cc1c(CC)c(C(=O)C(N)=O)c2c(OCC(=O)O)cccn12 (configuration not stated) [[1-Aminooxalyl-2-ethyl-3-(2-methyl-pentyl)-indolizin-8-yloxy]-acetic acid]	17	78
CCc1c(CC(N)=O)c2c(OCCCC(=O)O)cccn2c1Cc1ccccc1-c1ccccc1 [4-(3-Biphenyl-2-ylmethyl-1-carbamoylmethyl-2-ethyl-indolizin-8-yloxy)-butyric acid]	80	–
CCc1c(C(=O)C(N)=O)c2c(OCCCC(=O)O)cccn2c1Cc1ccccc1 [4-(1-Aminooxalyl-3-benzyl-2-ethyl-indolizin-8-yloxy)-butyric acid]	200	–
CCc1c(C(=O)C(N)=O)c2c(OCCCCC(=O)O)cccn2c1Cc1ccccc1-c1ccccc1 [5-(1-Aminooxalyl-3-biphenyl-2-ylmethyl-2-ethyl-indolizin-8-yloxy)-pentanoic acid]	1300	–
CCc1c(C(=O)C(N)=O)c2c(OCC(=O)O)cccn2c1Cc1cc(C(C)(C)C)cc(C(C)(C)C)c1 [[1-Aminooxalyl-3-(3,5-di-tert-butyl-benzyl)-2-ethyl-indolizin-8-yloxy]-acetic acid]	6600	–
CCc1c(C(=O)C(N)=O)c2c(OCCC(=O)O)cccn2c1Cc1ccccc1-c1ccccc1 [3-(1-Aminooxalyl-3-biphenyl-2-ylmethyl-2-ethyl-indolizin-8-yloxy)-propionic acid]	44	130
NC(=O)C(=O)c1c(C2CC2)c(Cc2ccccc2-c2ccccc2)n2cccc(OCC(=O)O)c12 [(1-Aminooxalyl-3-biphenyl-2-ylmethyl-2-cyclopropyl-indolizin-8-yloxy)-acetic acid]	9	6
CCc1c(C(=O)C(N)=O)c2cc(OCCC(=O)O)ccn2c1Cc1ccccc1-c1ccccc1	240	–
CCc1c(CC(N)=O)c2c(OCC(=O)O)cccn2c1Cc1ccccc1 [(3-Benzyl-1-carbamoylmethyl-2-ethyl-indolizin-8-yloxy)-acetic acid]	13	28
CCc1c(C(=O)C(N)=O)c2c(OCC(=O)OC)cccn2c1C/C=C/c1ccccc1 [[1-Aminooxalyl-2-ethyl-3-((E)-3-phenyl-allyl)-indolizin-8-yloxy]-acetic acid methyl ester]	38	80
COC(=O)COc1cccn2c(Cc3ccccc3-c3ccccc3)c(C)c(C(=O)C(N)=O)c12 [(1-Aminooxalyl-3-biphenyl-2-ylmethyl-2-methyl-indolizin-8-yloxy)-acetic acid methyl ester]	8	1.4

SMILES	IC50 (Phospholipase A2) [nM]	IC50 [1] [nM]
COC(=O)COc1cccn2c(Cc3ccccc3-c3ccccc3)c(C(C)(C)C)c(C(=O)C(N)=O)c12 [(1-Aminooxalyl-3-biphenyl-2-ylmethyl-2-tert-butyl-indolizin-8-yloxy)-acetic acid methyl ester]	100	–
CCc1c(C(N)=O)c2c(OCC(=O)O)cccn2c1Cc1cccc2ccccc12 [(1-Carbamoyl-2-ethyl-3-naphthalen-1-ylmethyl-indolizin-8-yloxy)-acetic acid]	30	135
CCc1c(C(=O)C(N)=O)c2c(OCC(=O)O)cccn2c1Cc1cccc(OC)c1 [[1-Aminooxalyl-2-ethyl-3-(3-methoxy-benzyl)-indolizin-8-yloxy]-acetic acid]	21	30
CCc1c(C(=O)C(N)=O)c2c(OCC(=O)O)cccn2c1CC1CCCCC1 [(1-Aminooxalyl-3-cyclohexylmethyl-2-ethyl-indolizin-8-yloxy)-acetic acid]	21	30
CCc1c(C(=O)C(N)=O)c2c(OCC(=O)O)cccn2c1Cc1ccccc1Cc1ccccc1 [[1-Aminooxalyl-3-(2-benzyl-benzyl)-2-ethyl-indolizin-8-yloxy]-acetic acid]	6	1.3
CCc1c(C(=O)C(N)=O)c2cc(OCCCC(=O)O)ccn2c1Cc1ccccc1-c1ccccc1	140	–
CCc1c(C(=O)C(N)=O)c2c(OCC(=O)O)cccn2c1Cc1ccccc1[N+](=O)[O-] [[1-Aminooxalyl-2-ethyl-3-(2-nitro-benzyl)-indolizin-8-yloxy]-acetic acid]	36	120
CCc1c(CC(N)=O)c2c(OCC(=O)O)cccn2c1Cc1cccc(Cl)c1 [[1-Carbamoylmethyl-3-(3-chloro-benzyl)-2-ethyl-indolizin-8-yloxy]-acetic acid]	15	52
CCc1c(C(=O)C(N)=O)c2c(OCC(=O)OC)cccn2c1CCc1ccccc1 [(1-Aminooxalyl-2-ethyl-3-phenethyl-indolizin-8-yloxy)-acetic acid methyl ester]	51	–
CCc1c(C(=O)C(N)=O)c2cc(OCC(=O)O)ccn2c1Cc1ccccc1-c1ccccc1	1400	–
NC(=O)Cc1c(C2CC2)c(Cc2ccccc2-c2ccccc2)n2cccc(OCC(=O)O)c12 [(3-Biphenyl-2-ylmethyl-1-carbamoylmethyl-2-cyclopropyl-indolizin-8-yloxy)-acetic acid]	13	26
CCc1c(C(=O)C(=O)NC)c2c(OCC(=O)O)cccn2c1Cc1ccccc1 [(3-Benzyl-2-ethyl-1-methylaminooxalyl-indolizin-8-yloxy)-acetic acid]	> 50000	–
CSc1c(C(=O)C(N)=O)c2c(OCC(=O)O)cccn2c1Cc1ccccc1-c1ccccc1 [(1-Aminooxalyl-3-biphenyl-2-ylmethyl-2-methylsulfanyl-indolizin-8-yloxy)-acetic acid]	16	–
CCCCCc1c(CC)c(C(=O)C(N)=O)c2c(OCC(=O)O)cccn12 [(1-Aminooxalyl-2-ethyl-3-pentyl-indolizin-8-yloxy)-acetic acid]	62	–
CCc1c(C(=O)C(N)=O)c2c(OCc3ccncc3)cccn2c1Cc1ccccc1-c1ccccc1 [2-[3-Biphenyl-2-ylmethyl-2-ethyl-8-(pyridin-4-ylmethoxy)-indolizin-1-yl]-2-oxo-acetamide]	83	–
CCc1c(C(=O)C(N)=O)c2c(OCC(=O)OC)cccn2c1Cc1ccccc1-c1ccccc1 [(1-Aminooxalyl-3-biphenyl-2-ylmethyl-2-ethyl-indolizin-8-yloxy)-acetic acid methyl ester]	17	–
CCc1c(C(=O)C(N)=O)c2c(OCC(=O)O)cccn2c1CCc1ccccc1 [(1-Aminooxalyl-2-ethyl-3-phenethyl-indolizin-8-yloxy)-acetic acid]	51	–
CCc1c(C(=O)C(N)=O)c2c(OCc3ccccn3)cccn2c1Cc1ccccc1-c1ccccc1 [2-[3-Biphenyl-2-ylmethyl-2-ethyl-8-(pyridin-2-ylmethoxy)-indolizin-1-yl]-2-oxo-acetamide]	46	–
CCc1c(C(=O)C(=O)N(C)C)c2c(OCC(=O)O)cccn2c1Cc1ccccc1 [(3-Benzyl-1-dimethylaminooxalyl-2-ethyl-indolizin-8-yloxy)-acetic acid]	> 50000	–
NC(=O)C(=O)c1c(C2CC2)c(Cc2ccccc2-c2ccccc2)n2cccc(OCCCC(=O)O)c12 [4-(1-Aminooxalyl-3-biphenyl-2-ylmethyl-2-cyclopropyl-indolizin-8-yloxy)-butyric acid]	4400	–
CCc1c(CC(N)=O)c2c(OCC(O)CC)cccn2c1Cc1cccc(Cl)c1 (configuration not stated) [2-[3-(3-Chloro-benzyl)-2-ethyl-8-(2-hydroxy-butoxy)-indolizin-1-yl]-acetamide]	19000	–
